In general, IC50 refers to the concentration needed to halve the response being measured.

Each structure is given as a SMILES string. Several values for one entry are separate records, joined by “and”; a condition that tells them apart may be missing. Identical values can stand only once. Entries after “also recorded” stand apart in the source; their conditions may differ.

One data set has as its system Raw 264.7 cell line. More on the design: method as in PMID 20625233, PMID 23541436. The following applies: concentrations much higher than in the current study; cited from earlier work.
Another data set has as its system Raw 264.7 cells. Description: Cytotoxicity by resazurin reduction assay in Raw 264.7 cells. It is filed as cell-based, mouse. The note with it: viability not decreased by more than 30% relative to LPS alone (ISO 10993-5), LPS 1 µg/mL 18 h. The method, then: Various concentrations of the test compounds, in the absence or presence of LPS, were first evaluated for cytotoxicity using the resazurin reduction assay[26]
(§1) Raw 264.7 cells were plated at a density of 3 × 10^5 cells/mL and left to stabilize for up to 24 h.
Resazurin is a redox dye used as an indicator of cellular metabolic activity for various applications, namely cell viability, proliferation and toxicity. The assay is based on the intracellular reduction of the non-fluorescent resazurin to resorufin (a fluorescent and pink coloured compound) by mitochondrial or microsomal enzymes that use NADH or NADPH as electron sources. Since only metabolically active cells can reduce the dye, the increase in fluorescence or absorbance is directly proportional to the number of viable cells[26],[50].
(§2) To select non-cytotoxic concentrations of the test compounds, the resazurin solution was added to each well to a final concentration of 50 µM, 90 min before the end of the treatment period indicated in the figure legends. Then, absorbances at 570 nm and 620 nm (reference wavelength) were read in a Biotek Synergy HT plate reader (Biotek, Winooski, VT, USA).
On the technique in general: Alamar Blue is a resazurin reagent that responds to reducing activity.

In data set [1] the test system is LPS-induced NO production in Raw 264.7 macrophages. Description: Primary screening: LPS-induced NO production (nitrite, Griess reaction) in Raw 264.7 macrophages. It is filed as cell-based, mouse. The note with it: for % inhibition of LPS-induced NO production: at the highest non-cytotoxic concentration tested, nitrite in supernatants; for % inhibition of LPS-induced NO production / Effect on LPS-induced NO production / anti-inflammatory activity (in words) / Decrease (inhibition) of LPS-induced NO production: Raw 264.7; for Effect on LPS-induced NO production / anti-inflammatory activity (in words): non-cytotoxic concentrations; for IC50: Mus musculus, RAW264.7, Raw 264.7 cell line; for Decrease (inhibition) of LPS-induced NO production: at the highest concentration tested. On the procedure:
as §1
(§3) This vehicle was used as control. Lipopolysaccharides from Escherichia coli 026:B6 (LPS; Sigma-Aldrich Co.) were dissolved in phosphate buffered saline (PBS). Recombinant human interleukin-1β (IL-1β; Peprotech, Rocky Hill, NJ, USA) was dissolved in PBS containing 0.1% Bovine Serum Albumin.
(§4) NO production was measured as the amount of nitrite accumulated in the culture supernatants using the Griess reaction which is based in the reaction of nitrite with sulfanilamide under acidic conditions, yielding a diazonium ion that couples to N-(1-napthtyl)ethylenediamine dihydrochloride to form a water-soluble red-violet azo dye that absorbs at 550 nm[51]. Briefly, equal volumes of culture supernatants and reagents [equal volumes of 1% (w/v) sulphanilamide in 5% (v/v) phosphoric acid and 0.1% (w/v) N-(1-napthtyl)ethylenediamine dihydrochloride] were mixed and incubated for 10 min, at room temperature, in the dark. The concentration of nitrite accumulated in the culture supernatants was calculated by interpolation of the absorbance of each sample, read in Biotek Synergy HT plate reader (Biotek), in a standard curve of sodium nitrite.
(Griess reagent forms a coloured azo dye with nitrite.)

Data set [2] deals with human chondrocytes. On the set-up: method as in PMID 25622554. The note with it: limonene up to 200 μg/mL, β-myrcene up to 50 μg/mL; cited from earlier work.
Data set [3] relates to NOS2. Description: LPS-induced NOS2 mRNA (qRT-PCR) and protein (western blot) in Raw 264.7. In kind it is cell-based, mouse. The following applies: 1 h pre-treatment, Bay 11-7082 5 μM; for LPS-induced NOS2 mRNA levels: LPS 1 µg/mL 6 h, test compounds 666 µM; for LPS-induced NOS2 protein levels: LPS 1 µg/mL 18 h.
Description: Macrophage cultures were treated with 1 µg/mL LPS, for 6 h (a) or 18 h (b), following pre-treatment for 1 h with 666 µM of each test compound (a) or with the concentrations indicated in (b). […] Control cells (Ctrl) were treated with the vehicle (0.1% DMSO) in the absence of LPS. Each column represents the mean ± SEM of four independent experiments. The blots shown are representative of, at least, three independent experiments and are cropped for clarity and conciseness.
Total RNA extraction and qRT-PCR were performed as described before[52]. Briefly, total RNA was extracted using the NZYol (NZYTECH, Lisbon, Portugal) and quantified in a NanoDrop ND-1000 spectrophotometer at 260 nm. RNA purity was assessed by analysis of 260/230 and 260/280 absorption ratios. The cDNA was reverse-transcribed using NZY First Strand cDNA Synthesis Kit (NZYTECH), beginning with 2 µg of total RNA. qRT-PCR was performed, in duplicate for each sample, using NZYSpeedy qPCR Green Master Mix (2×) (NZYTECH) on CFX96 Real-Time PCR Detection System (Bio-Rad, Hercules, CA, USA).
Gene expression changes were analysed using the built-in CFX Manager software which enables the analysis of the results by the Pfaffl method, a variation of the ΔΔCT method corrected for gene-specific efficiencies[53]. The results were normalized using Hprt1 as housekeeping gene.
Total cell extracts were prepared and western blot was performed as described before[54]. Briefly, total (25 µg for Raw 264.7 cell line and 20 µg for human chondrocytes) proteins were separated by SDS-PAGE under reducing conditions and electrotransferred onto PVDF membranes. […] Immune complexes were detected with Enhanced ChemiFluorescence reagent (GE Healthcare) in the imaging system Thyphoon FLA 9000 (GE Healthcare). The membranes were reprobed with a mouse monoclonal anti-β-Tubulin I antibody (Sigma-Aldrich Co.), diluted at 1:20000, as a loading control, for 1 h at room temperature. Image analysis was performed with TotalLab TL120 software (Nonlinear Dynamics Ltd).
Data set [4] deals with NOS2. Kind of data set: NO production and NOS2 protein levels pre-induced by LPS (compound added after LPS removal) in Raw 264.7. In kind it is cell-based, mouse. The note with it: LPS 1 μg/mL 8 h, LPS removed, then 666 µM compound for 18 h. The method, then: (§5) Each column represents the mean ± SEM of, at least, three independent experiments. The blots shown are representative of, at least, three independent experiments and are cropped for clarity and conciseness.
as §4
(§6) Total cell extracts were prepared and western blot was performed as described before. Briefly, total (25 µg for Raw 264.7 cell line and 20 µg for human chondrocytes) proteins were separated by SDS-PAGE under reducing conditions and electrotransferred onto PVDF membranes. […] Immune complexes were detected with Enhanced ChemiFluorescence reagent (GE Healthcare) in the imaging system Thyphoon FLA 9000 (GE Healthcare). The membranes were reprobed with a mouse monoclonal anti-β-Tubulin I antibody (Sigma-Aldrich Co.), diluted at 1:20000, as a loading control, for 1 h at room temperature. Image analysis was performed with TotalLab TL120 software (Nonlinear Dynamics Ltd).

For a further data set, the system named is IL-1β. Kind of data set: LPS-induced IL-1β mRNA, pro-IL-1β protein and secreted IL-1β in Raw 264.7. It is filed as cell-based, mouse. The note with it: for LPS-induced IL-1β mRNA levels: LPS 1 µg/mL 6 h, 1 h pre-treatment with 666 µM; for mature IL-1β secreted into the cell culture medium / pro-IL-1β protein levels: LPS 1 µg/mL 18 h, relative to LPS alone; for mature IL-1β secreted into the cell culture medium: 666 µM, ELISA. On the procedure:
Upon transcription, this mRNA is translated into a precursor protein (pro-IL-1β) that undergoes partial hydrolysis by a proteolytic complex, the inflammasome, being converted into the mature IL-1β protein which is then secreted.
Figure 3 (S)-(+)-carvone (4) and (R)-(−)-carvone (5) decrease LPS-induced IL-1β mRNA (a) and protein (b,c) levels in the Raw 264.7 cell line. Macrophage cultures were treated with 1 µg/mL LPS, for 6 h (a) or 18 h (b,c), following pre-treatment for 1 h with 666 µM of each test compound (a and c) or with the concentrations indicated in (b). Control cells (Ctrl) were treated with vehicle (0.1% DMSO) in the absence of LPS. Each column represents the mean ± SEM of, at least, three independent experiments. The blots shown are representative of, at least, three independent experiments and are cropped for clarity and conciseness. The corresponding full-length blots are presented in Fig. S3. *p < 0.05, **p < 0.01 and ****p < 0.0001 relative to LPS-treated cells. ^##p < 0.01, ^###p < 0.001 and ^####p < 0.0001 relative to the Ctrl. ^§p < 0.05 between the conditions indicated. MW: molecular weight marker.
as §3
Total RNA extraction and qRT-PCR were performed as described before. Briefly, total RNA was extracted using the NZYol (NZYTECH, Lisbon, Portugal) and quantified in a NanoDrop ND-1000 spectrophotometer at 260 nm. RNA purity was assessed by analysis of 260/230 and 260/280 absorption ratios. The cDNA was reverse-transcribed using NZY First Strand cDNA Synthesis Kit (NZYTECH), beginning with 2 µg of total RNA. qRT-PCR was performed, in duplicate for each sample, using NZYSpeedy qPCR Green Master Mix (2×) (NZYTECH) on CFX96 Real-Time PCR Detection System (Bio-Rad, Hercules, CA, USA).
Gene expression changes were analysed using the built-in CFX Manager software which enables the analysis of the results by the Pfaffl method, a variation of the ΔΔCT method corrected for gene-specific efficiencies. The results were normalized using Hprt1 as housekeeping gene.
as §6
The concentration of IL-1β in the culture supernatants was measured using the Mouse IL-1β ELISA kit (ThermoScientific, Rockford, USA), following the manufacturer’s instructions.
For orientation: ELISA stands for enzyme-linked immunosorbent assay.

Data set [5] deals with human chondrocytes. Description: Cell viability of IL-1β-treated primary human chondrocytes (resazurin). In kind it is cell-based. The note with it: 666 or 1331 µM; IL-1β 10 ng/mL 24 h. The method, then: as §5, §3, §2
Data set [6] has as its system human chondrocytes. Kind of data set: IL-1β-induced NOS2 protein, NO production and pro-IL-1β protein in primary human chondrocytes. It is filed as cell-based. The following applies: IL-1β 10 ng/mL 24 h.
Description: The cells were treated with 10 ng/mL IL-1β for 24 h (a, b, c and d), following pre-treatment for 1 h with 666 or 1331 µM of (S)-(+)-carvone (4). As a positive control, the cells were similarly treated with 5 μM Bay 11-7082 (b and c). Control cells (Ctrl) were treated with the vehicle (0.1% DMSO) in the absence of IL-1β. Each column represents the mean ± SEM of, at least, three independent experiments. The blots shown are representative of, at least, three independent experiments and are cropped for clarity and conciseness.
Briefly, cartilage shavings underwent sequential digestion with Pronase (Roche, Indianapolis, IN, USA) and collagenase A (Roche, Indianapolis, IN, USA). To avoid chondrocyte dedifferentiation, non-proliferating monolayer cultures were setup by plating 1× 10^6 chondrocytes/mL in HAM: F12 medium containing 3% antibiotics and 5% FBS and allowed to recover for 24 h at 37 °C in a humidified atmosphere with 5% CO2. Prior to any treatments, chondrocytes were serum-starved overnight and thereafter maintained in culture medium without FBS.
This vehicle was used as control. […] Recombinant human interleukin-1β (IL-1β; Peprotech, Rocky Hill, NJ, USA) was dissolved in PBS containing 0.1% Bovine Serum Albumin.
Total cell extracts were prepared and western blot was performed as described before[54]. […] Immune complexes were detected with Enhanced ChemiFluorescence reagent (GE Healthcare) in the imaging system Thyphoon FLA 9000 (GE Healthcare). The membranes were reprobed with a mouse monoclonal anti-β-Tubulin I antibody (Sigma-Aldrich Co.), diluted at 1:20000, as a loading control, for 1 h at room temperature. Image analysis was performed with TotalLab TL120 software (Nonlinear Dynamics Ltd).
[7] abbreviates: carvone 666 or 1331 µM, Bay 11-7082 5 µM.

Regarding `C=CC(=C)CCC=C(C)C` [β-myrcene (16), β-myrcene], the Anti-inflammatory effects result in the data set on Raw 264.7 cell line and in the data set on human chondrocytes [2] was “Significant anti-inflammatory effects” each time. Besides, in the data set on Raw 264.7 cells, the “Highest non-cytotoxic concentration tested” value is 183 µM and 25 µg/mL. Also, the “% inhibition of LPS-induced NO production” value in [1] was 16.48 ± 17.00 % ± SEM. Further, the “Effect on LPS-induced NO production / anti-inflammatory activity (in words)” value in [1] is listed as “showed no activity”; in data set [1] (listed as 16), “no effect; also recorded: Neither the more rigid (17–19), nor the more flexible (16) of these four compounds showed any activity”.
Turning to `C=C(C)[C@H]1CC=C(C)CC1` [limonene], the Anti-inflammatory effects result in the data set with Raw 264.7 cell line and with human chondrocytes [2] was “Significant anti-inflammatory effects” in each case.
For `C=C(C)[C@@H]1CC=C(C)C(=O)C1` [(R)-(−)-carvone (5), (R)-(−)-carvone], in the data set with NOS2 [3], the “LPS-induced NOS2 mRNA levels” value is on record as “significantly reduced” and the “LPS-induced NOS2 protein levels” value is “significantly reduced”. Moreover, in the data set on NOS2 [4], the “Decrease of NO production” value is reported as “approximately 30%” and the “Reduction of NOS2 protein levels” value was “approximately 60%”. In addition, in the data set on IL-1β, the “LPS-induced IL-1β mRNA levels” value is “significantly reduced”, the “mature IL-1β secreted into the cell culture medium” value is “significantly decreased” and the pro-IL-1β protein levels entry was “significantly decreased”. Moreover, in the data set on Raw 264.7 cells, the “Highest non-cytotoxic concentration tested” value is 666 µM and 100 µg/mL. Besides, in data set [1], the IC50 is 123 µM and 18.5 µg/mL; the “Decrease (inhibition) of LPS-induced NO production” value is “greater than 30%”; the “% inhibition of LPS-induced NO production” value was 71.50 ± 1.74 % ± SEM.
For the compound `C=C(C)[C@H]1CC=C(C)C(=O)C1` [(S)-(+)-carvone (4), (S)-(+)-carvone], in the data set with NOS2 [3], the “LPS-induced NOS2 mRNA levels” value is reported as “significantly reduced” and the “LPS-induced NOS2 protein levels” value is given as “significantly reduced”. Moreover, in the data set with NOS2 [4], the “Decrease of NO production” value was “approximately 30%” and the “Reduction of NOS2 protein levels” value was “approximately 60%”. Besides, in the data set with IL-1β, the “LPS-induced IL-1β mRNA levels” value was “significantly reduced”, the “mature IL-1β secreted into the cell culture medium” value is recorded as “significantly decreased” and the pro-IL-1β protein levels entry is reported as “significantly decreased”. In the data set with Raw 264.7 cells, the “Highest non-cytotoxic concentration tested” value is 666 µM and 100 µg/mL. Also, in the data set on human chondrocytes [5], the “Cell viability relative to cells treated with IL-1β alone” value was “not to affect cell viability”. In data set [1], the IC50 is 110 µM and 16.5 µg/mL; the “Decrease (inhibition) of LPS-induced NO production” value is on record as “greater than 30%”; the “% inhibition of LPS-induced NO production” value is on record as 68.73 ± 1.55 % ± SEM. The pro-IL-1β protein levels entry with human chondrocytes [6] (666 or 1331 µM) is “significantly decreased pro-IL-1β protein levels in a concentration-dependent manner”. In the data set on human chondrocytes [6] (setting [7]), the “IL-1β-induced NO production” value is “significantly decreased” and the “IL-1β-induced NOS2 protein levels” value is “significantly decreased”.
